Assays:
Format in all cases: in vivo
[1] = system: large crabgrass (Digitaria sanguinalis); assay: Test A preemergence; details: 0 to 100 scale, 0 no effect, 100 complete control, approx. 10 days
Description: (§1) Seeds of barnyardgrass (Echinochloa crus-galli), large crabgrass (Digitaria sanguinalis), giant foxtail (Setaria faberii), morningglory (Ipomoea spp.), pigweed (Amaranthus retroflexus), velvetleaf (Abutilon theophrasti), wheat (Triticum aestivum) and corn (Zea mays) were planted into a blend of loam soil and sand and treated preemergence with a directed soil spray using test chemicals formulated in a non-phytotoxic solvent mixture which included a surfactant. At the same time these species were also treated with postemergence applications of test compounds formulated in the same manner. Plants ranged in height from 2 to 10 cm and were in the one- to two-leaf stage for the postemergence treatments. Treated plants and untreated controls were maintained in a greenhouse for approximately 10 days, after which time all treated plants were compared to untreated controls and visually evaluated for injury. Plant response ratings, summarized in Table A, are based on a 0 to 100 scale where 0 is no effect and 100 is complete control.

[2] = system: barnyardgrass (Echinochloa crus-galli); assay: Test A preemergence; details: 0 to 100 scale, 0 no effect, 100 complete control, approx. 10 days
Description: as §1

[3] = system: velvetleaf (Abutilon theophrasti); assay: Test A preemergence; details: 0 to 100 scale, 0 no effect, 100 complete control, approx. 10 days
Description: as §1

[4] = system: morningglory (Ipomoea spp.); assay: Test A preemergence; details: 0 to 100 scale, 0 no effect, 100 complete control, approx. 10 days
Description: as §1

[5] = system: wheat (Triticum aestivum); assay: Test A preemergence; details: 0 to 100 scale, 0 no effect, 100 complete control, approx. 10 days
Description: as §1

corn (Zea mays) [6] = assay: Test A preemergence; details: 0 to 100 scale, 0 no effect, 100 complete control, approx. 10 days
Description: as §1

[7] = system: pigweed (Amaranthus retroflexus); assay: Test A preemergence; details: 0 to 100 scale, 0 no effect, 100 complete control, approx. 10 days
Description: as §1

[8] = system: giant foxtail (Setaria faberii); assay: Test A preemergence; details: 0 to 100 scale, 0 no effect, 100 complete control, approx. 10 days
Description: as §1

[9] = system: barnyardgrass (Echinochloa crus-galli); assay: Test B flooded paddy test; details: Flood
Description: (§2) Plant species in the flooded paddy test consisted of rice (Oryza sativa), umbrella sedge (Cyperus difformis), ducksalad (Heteranthera limosa) and barnyardgrass (Echinochloa crus-galli) grown to the 2-leaf stage for testing. At time of treatment, test pots were flooded to 3 cm above the soil surface, treated by application of test compounds directly to the paddy water, and then maintained at that water depth for the duration of the test. Treated plants and controls were maintained in a greenhouse for 13 to 15 days, after which time all species were compared to controls and visually evaluated. Plant response ratings, summarized in Table B, are based on a scale of 0 to 100 where 0 is no effect and 100 is complete control. A dash (-) response means no test result.

[10] = system: ducksalad (Heteranthera limosa); assay: Test B flooded paddy test; details: Flood, scale 0 to 100
Description: as §2

[11] = system: umbrella sedge (Cyperus difformis); assay: Test B flooded paddy test; details: Flood, scale 0 to 100
Description: as §2

rice (Oryza sativa) = assay: Test B flooded paddy test; details: Flood, scale 0 to 100
Description: as §2

[12] = system: large crabgrass (Digitaria sanguinalis); assay: Test A postemergence; details: 0 to 100 scale, 0 no effect, 100 complete control, approx. 10 days
Description: as §1

[13] = system: barnyardgrass (Echinochloa crus-galli); assay: Test A postemergence; details: 0 to 100 scale, 0 no effect, 100 complete control, approx. 10 days
Description: as §1

[14] = system: velvetleaf (Abutilon theophrasti); assay: Test A postemergence; details: 0 to 100 scale, 0 no effect, 100 complete control, approx. 10 days
Description: as §1

[15] = system: morningglory (Ipomoea spp.); assay: Test A postemergence; details: 0 to 100 scale, 0 no effect, 100 complete control, approx. 10 days
Description: as §1

[16] = system: wheat (Triticum aestivum); assay: Test A postemergence; details: 0 to 100 scale, 0 no effect, 100 complete control, approx. 10 days
Description: as §1

corn (Zea mays) [17] = assay: Test A postemergence; details: 0 to 100 scale, 0 no effect, 100 complete control, approx. 10 days
Description: as §1

[18] = system: pigweed (Amaranthus retroflexus); assay: Test A postemergence; details: 0 to 100 scale, 0 no effect, 100 complete control, approx. 10 days
Description: as §1

[19] = system: giant foxtail (Setaria faberii); assay: Test A postemergence; details: 0 to 100 scale, 0 no effect, 100 complete control, approx. 10 days
Description: as §1

COCCCn1c(-c2cc(F)cc(F)c2)c(Cl)nc(C(=O)C2=C(O)CCCC2=O)c1=O [Compound 8]
Plant response rating, Crabgrass, Large ([1]; 31 g ai/ha): 20
Plant response rating, Crabgrass, Large ([1]; 125 g ai/ha): 40
Plant response rating, Barnyardgrass ([2]; 31 g ai/ha): 0
Plant response rating, Barnyardgrass ([2]; 125 g ai/ha): 10
Plant response rating, Velvetleaf ([3]; 31 g ai/ha): 0
Plant response rating, Velvetleaf ([3]; 125 g ai/ha): 0
Plant response rating, Morningglory ([4]; 31 g ai/ha): 0
Plant response rating, Morningglory ([4]; 125 g ai/ha): 10
Plant response rating, Wheat ([5]; 31 g ai/ha): 0
Plant response rating, Wheat ([5]; 125 g ai/ha): 0
Plant response rating, Corn (corn (Zea mays) [6]; 31 g ai/ha): 0
Plant response rating, Corn (corn (Zea mays) [6]; 125 g ai/ha): 0
Plant response rating, Pigweed ([7]; 31 g ai/ha): 0
Plant response rating, Pigweed ([7]; 125 g ai/ha): 10
Plant response rating, Foxtail, Giant ([8]; 31 g ai/ha): 0
Plant response rating, Foxtail, Giant ([8]; 125 g ai/ha): 0
Plant response rating, Barnyardgrass ([9]; 31 g ai/ha, scale 0 to 100): 0
Plant response rating, Barnyardgrass ([9]; 62 g ai/ha, scale 0 to 100): 0
Plant response rating, Barnyardgrass ([9]; 125 g ai/ha, scale 0 to 100): 0
Plant response rating, Barnyardgrass ([9]; 250 g ai/ha, scale 0 to 100 (0 no effect, 100 complete control)): 40
Plant response rating, Ducksalad ([10]; 31 g ai/ha): 0
Plant response rating, Ducksalad ([10]; 62 g ai/ha): 0
Plant response rating, Ducksalad ([10]; 125 g ai/ha): 30
Plant response rating, Ducksalad ([10]; 250 g ai/ha): 80
Plant response rating, Sedge, Umbrella ([11]; 31 g ai/ha): 0
Plant response rating, Sedge, Umbrella ([11]; 62 g ai/ha): 40
Plant response rating, Sedge, Umbrella ([11]; 125 g ai/ha): 40
Plant response rating, Sedge, Umbrella ([11]; 250 g ai/ha): 75
Plant response rating, Rice (rice (Oryza sativa); 31 g ai/ha): 0
Plant response rating, Rice (rice (Oryza sativa); 62 g ai/ha): 0
Plant response rating, Rice (rice (Oryza sativa); 125 g ai/ha): 0
Plant response rating, Rice (rice (Oryza sativa); 250 g ai/ha): 25
Plant response rating, Crabgrass, Large ([12]; 31 g ai/ha): 0
Plant response rating, Crabgrass, Large ([12]; 125 g ai/ha): 30
Plant response rating, Barnyardgrass ([13]; 31 g ai/ha): 0
Plant response rating, Barnyardgrass ([13]; 125 g ai/ha): 10
Plant response rating, Velvetleaf ([14]; 31 g ai/ha): 10
Plant response rating, Velvetleaf ([14]; 125 g ai/ha): 50
Plant response rating, Morningglory ([15]; 31 g ai/ha): 0
Plant response rating, Morningglory ([15]; 125 g ai/ha): 50
Plant response rating, Wheat ([16]; 31 g ai/ha): 0
Plant response rating, Wheat ([16]; 125 g ai/ha): 0
Plant response rating, Corn (corn (Zea mays) [17]; 31 g ai/ha): 0
Plant response rating, Corn (corn (Zea mays) [17]; 125 g ai/ha): 0
Plant response rating, Pigweed ([18]; 31 g ai/ha): 20
Plant response rating, Pigweed ([18]; 125 g ai/ha): 40
Plant response rating, Foxtail, Giant ([19]; 31 g ai/ha): 0
Plant response rating, Foxtail, Giant ([19]; 125 g ai/ha): 10
